# Results from PMC11480411, “Mucosal sugars delineate pyrazine vs pyrazinone autoinducer signaling in Klebsiella oxytoca” (Nature Communications, 2024).
# Experiments:
# Test in all cases: PRESTO-Tango GPCR screen
# Assay type in all cases: cell-based
# Details in all cases: 100 µM
# NPY5R = target: T1, NPY5R (Homo sapiens, UniProt Q15761)
# T1 construct: purchased PRESTO-Tango GPCR kit (Roth lab / Addgene)
# Procedure, shortened: (§1)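 Receptor activation is detected through β-arrestin-TEV cleavage releasing tTA, which drives luciferase in HTLA cells. Transfected cells receive compound (100 μM final) in DMEM with 10 mM HEPES for 20 h; Bright-Glo luminescence is divided by the PBS-control signal.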
# OXER1 = target: T2, OXER1 (Homo sapiens, UniProt Q8TDS5)
# T2 construct: purchased PRESTO-Tango GPCR kit (Roth lab / Addgene)
# Procedure, shortened: as §1
# RXFP3 = target: T3, RXFP3 (Homo sapiens, UniProt Q9NSD7)
# T3 construct: purchased PRESTO-Tango GPCR kit (Roth lab / Addgene)
# Procedure, shortened: as §1
# FFA2 = target: T4, FFA2 (Homo sapiens, UniProt O15552)
# T4 construct: purchased PRESTO-Tango GPCR kit (Roth lab / Addgene)
# Procedure, shortened: as §1
# HTR5 = target: T5, HTR5 (Homo sapiens, UniProt P47898)
# T5 construct: purchased PRESTO-Tango GPCR kit (Roth lab / Addgene)
# Procedure, shortened: as §1
# GRM7 = target: T6, GRM7 (Homo sapiens, UniProt Q14831)
# T6 construct: purchased PRESTO-Tango GPCR kit (Roth lab / Addgene)
# Procedure, shortened: as §1
# ADRB3 = target: T7, ADRB3 (Homo sapiens, UniProt P13945)
# T7 construct: purchased PRESTO-Tango GPCR kit (Roth lab / Addgene)
# Procedure, shortened: as §1
# MRGPRD = target: T8, MRGPRD (Homo sapiens, UniProt Q8TDS7)
# T8 construct: purchased PRESTO-Tango GPCR kit (Roth lab / Addgene)
# Procedure, shortened: as §1
# CCR3 = target: T9, CCR3 (Homo sapiens, UniProt P51677)
# T9 construct: purchased PRESTO-Tango GPCR kit (Roth lab / Addgene)
# Procedure, shortened: as §1
# P2RY2 = target: T10, P2RY2 (Homo sapiens, UniProt P41231)
# T10 construct: purchased PRESTO-Tango GPCR kit (Roth lab / Addgene)
# Procedure, shortened: as §1
# GRM5 = target: T11, GRM5 (Homo sapiens, UniProt P41594)
# T11 construct: purchased PRESTO-Tango GPCR kit (Roth lab / Addgene)
# Procedure, shortened: as §1
# PTAFR = target: T12, PTAFR (Homo sapiens, UniProt P25105)
# T12 construct: purchased PRESTO-Tango GPCR kit (Roth lab / Addgene)
# Procedure, shortened: as §1
# NTSR2 = target: T13, NTSR2 (Homo sapiens, UniProt O95665)
# T13 construct: purchased PRESTO-Tango GPCR kit (Roth lab / Addgene)
# Procedure, shortened: as §1
# AVPR1A = target: T14, AVPR1A (Homo sapiens, UniProt P37288)
# T14 construct: purchased PRESTO-Tango GPCR kit (Roth lab / Addgene)
# Procedure, shortened: as §1
# GPR4 = target: T15, GPR4 (Homo sapiens, UniProt P46093)
# T15 construct: purchased PRESTO-Tango GPCR kit (Roth lab / Addgene)
# Procedure, shortened: as §1
# S1PR1 = target: T16, S1PR1 (Homo sapiens, UniProt P21453)
# T16 construct: purchased PRESTO-Tango GPCR kit (Roth lab / Addgene)
# Procedure, shortened: as §1
# DRD1 = target: T17, DRD1 (Homo sapiens, UniProt P21728)
# T17 construct: purchased PRESTO-Tango GPCR kit (Roth lab / Addgene)
# Procedure, shortened: as §1
# SSTR2 = target: T18, SSTR2 (Homo sapiens, UniProt P30874)
# T18 construct: purchased PRESTO-Tango GPCR kit (Roth lab / Addgene)
# Procedure, shortened: as §1
# CXCR3 = target: T19, CXCR3 (Homo sapiens, UniProt P49682)
# T19 construct: purchased PRESTO-Tango GPCR kit (Roth lab / Addgene)
# Procedure, shortened: as §1
# NPY2R = target: T20, NPY2R (Homo sapiens, UniProt P49146)
# T20 construct: purchased PRESTO-Tango GPCR kit (Roth lab / Addgene)
# Procedure, shortened: as §1
# GPRC5B = target: T21, GPRC5B (Homo sapiens, UniProt Q9NZH0)
# T21 construct: purchased PRESTO-Tango GPCR kit (Roth lab / Addgene)
# Procedure, shortened: as §1
# GPR52 = target: T22, GPR52 (Homo sapiens, UniProt Q9Y2T5)
# T22 construct: purchased PRESTO-Tango GPCR kit (Roth lab / Addgene)
# Procedure, shortened: as §1
# LTB4R = target: T23, LTB4R (Homo sapiens, UniProt Q15722)
# T23 construct: purchased PRESTO-Tango GPCR kit (Roth lab / Addgene)
# Procedure, shortened: as §1
# CCR10 = target: T24, CCR10 (Homo sapiens, UniProt P46092)
# T24 construct: purchased PRESTO-Tango GPCR kit (Roth lab / Addgene)
# Procedure, shortened: as §1
# GPR22 = target: T25, GPR22 (Homo sapiens, UniProt Q99680)
# T25 construct: purchased PRESTO-Tango GPCR kit (Roth lab / Addgene)
# Procedure, shortened: as §1
# GPR26 = target: T26, GPR26 (Homo sapiens, UniProt Q8NDV2)
# T26 construct: purchased PRESTO-Tango GPCR kit (Roth lab / Addgene)
# Procedure, shortened: as §1
# GABBR1 = target: T27, GABBR1 (Homo sapiens, UniProt Q9UBS5)
# T27 construct: purchased PRESTO-Tango GPCR kit (Roth lab / Addgene)
# Procedure, shortened: as §1
# GAL2 = target: T28, GAL2 (Homo sapiens, UniProt O43603)
# T28 construct: purchased PRESTO-Tango GPCR kit (Roth lab / Addgene)
# Procedure, shortened: as §1
# OPRD1 = target: T29, OPRD1 (Homo sapiens, UniProt P41143)
# T29 construct: purchased PRESTO-Tango GPCR kit (Roth lab / Addgene)
# Procedure, shortened: as §1
# GRPR = target: T30, GRPR (Homo sapiens, UniProt P30550)
# T30 construct: purchased PRESTO-Tango GPCR kit (Roth lab / Addgene)
# Procedure, shortened: as §1
# TAAR6 = target: T31, TAAR6 (Homo sapiens, UniProt Q96RI8)
# T31 construct: purchased PRESTO-Tango GPCR kit (Roth lab / Addgene)
# Procedure, shortened: as §1
# PTH1R = target: T32, PTH1R (Homo sapiens, UniProt Q03431)
# T32 construct: purchased PRESTO-Tango GPCR kit (Roth lab / Addgene)
# Procedure, shortened: as §1
# GPR183 = target: T33, GPR183 (Homo sapiens, UniProt P32249)
# T33 construct: purchased PRESTO-Tango GPCR kit (Roth lab / Addgene)
# Procedure, shortened: as §1
# SSTR5 = target: T34, SSTR5 (Homo sapiens, UniProt P35346)
# T34 construct: purchased PRESTO-Tango GPCR kit (Roth lab / Addgene)
# Procedure, shortened: as §1
# GPR142 = target: T35, GPR142 (Homo sapiens, UniProt Q7Z601)
# T35 construct: purchased PRESTO-Tango GPCR kit (Roth lab / Addgene)
# Procedure, shortened: as §1
# GPR114 = target: T36, GPR114 (Homo sapiens, UniProt Q8IZF4)
# T36 construct: purchased PRESTO-Tango GPCR kit (Roth lab / Addgene)
# Procedure, shortened: as §1
# T10 sequence (P41231 whole entry): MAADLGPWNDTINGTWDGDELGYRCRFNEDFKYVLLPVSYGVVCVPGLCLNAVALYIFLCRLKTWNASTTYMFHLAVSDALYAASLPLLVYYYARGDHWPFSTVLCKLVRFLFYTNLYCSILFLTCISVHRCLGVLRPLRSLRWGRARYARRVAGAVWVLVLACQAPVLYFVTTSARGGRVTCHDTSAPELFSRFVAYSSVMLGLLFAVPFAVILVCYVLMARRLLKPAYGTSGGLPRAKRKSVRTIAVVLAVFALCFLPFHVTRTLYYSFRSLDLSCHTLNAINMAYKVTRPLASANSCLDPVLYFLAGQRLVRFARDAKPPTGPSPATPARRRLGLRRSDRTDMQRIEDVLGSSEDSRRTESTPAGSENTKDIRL
# T7 sequence (P13945 whole entry): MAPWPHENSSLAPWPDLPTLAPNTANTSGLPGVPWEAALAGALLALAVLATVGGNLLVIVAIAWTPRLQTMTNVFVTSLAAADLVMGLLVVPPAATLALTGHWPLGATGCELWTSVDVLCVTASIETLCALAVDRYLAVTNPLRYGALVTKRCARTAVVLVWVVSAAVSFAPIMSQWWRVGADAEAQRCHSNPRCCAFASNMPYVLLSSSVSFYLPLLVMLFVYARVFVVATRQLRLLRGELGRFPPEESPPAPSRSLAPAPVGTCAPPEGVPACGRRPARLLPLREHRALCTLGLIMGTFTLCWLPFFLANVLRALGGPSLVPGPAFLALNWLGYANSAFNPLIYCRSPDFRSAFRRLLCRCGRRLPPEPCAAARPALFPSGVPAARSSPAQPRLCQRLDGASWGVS
# T21 sequence (Q9NZH0 29-403): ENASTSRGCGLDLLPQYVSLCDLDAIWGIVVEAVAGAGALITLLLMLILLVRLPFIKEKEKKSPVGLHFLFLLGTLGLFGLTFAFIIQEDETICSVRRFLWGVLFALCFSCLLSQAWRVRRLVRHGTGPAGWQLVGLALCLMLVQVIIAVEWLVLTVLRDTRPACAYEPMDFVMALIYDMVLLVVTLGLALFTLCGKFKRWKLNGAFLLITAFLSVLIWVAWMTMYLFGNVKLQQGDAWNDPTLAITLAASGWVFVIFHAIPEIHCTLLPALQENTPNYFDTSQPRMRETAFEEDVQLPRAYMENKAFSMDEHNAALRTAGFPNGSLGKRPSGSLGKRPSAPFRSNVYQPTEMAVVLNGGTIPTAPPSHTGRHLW
# T22 sequence (Q9Y2T5 whole entry): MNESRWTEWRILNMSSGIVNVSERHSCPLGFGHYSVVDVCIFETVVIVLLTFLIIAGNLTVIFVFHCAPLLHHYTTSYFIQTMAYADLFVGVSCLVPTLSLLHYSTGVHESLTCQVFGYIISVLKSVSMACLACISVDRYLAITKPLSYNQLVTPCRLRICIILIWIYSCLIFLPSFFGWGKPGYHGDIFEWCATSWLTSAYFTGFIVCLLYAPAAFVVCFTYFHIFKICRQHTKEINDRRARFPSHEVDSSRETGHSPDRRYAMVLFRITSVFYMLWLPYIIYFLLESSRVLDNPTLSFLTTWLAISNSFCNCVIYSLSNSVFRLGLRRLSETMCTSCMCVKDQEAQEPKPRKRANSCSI
# T33 sequence (P32249 whole entry): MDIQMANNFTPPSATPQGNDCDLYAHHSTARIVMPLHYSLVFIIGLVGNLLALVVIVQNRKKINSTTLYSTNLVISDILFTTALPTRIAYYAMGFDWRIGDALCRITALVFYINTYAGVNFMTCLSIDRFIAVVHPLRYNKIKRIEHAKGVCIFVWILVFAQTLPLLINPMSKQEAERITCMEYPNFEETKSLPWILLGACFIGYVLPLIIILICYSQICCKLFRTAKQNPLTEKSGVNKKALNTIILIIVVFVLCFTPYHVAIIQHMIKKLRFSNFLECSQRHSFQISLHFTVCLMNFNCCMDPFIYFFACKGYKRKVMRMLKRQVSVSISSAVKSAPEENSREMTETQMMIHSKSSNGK
# T16 sequence (P21453 whole entry): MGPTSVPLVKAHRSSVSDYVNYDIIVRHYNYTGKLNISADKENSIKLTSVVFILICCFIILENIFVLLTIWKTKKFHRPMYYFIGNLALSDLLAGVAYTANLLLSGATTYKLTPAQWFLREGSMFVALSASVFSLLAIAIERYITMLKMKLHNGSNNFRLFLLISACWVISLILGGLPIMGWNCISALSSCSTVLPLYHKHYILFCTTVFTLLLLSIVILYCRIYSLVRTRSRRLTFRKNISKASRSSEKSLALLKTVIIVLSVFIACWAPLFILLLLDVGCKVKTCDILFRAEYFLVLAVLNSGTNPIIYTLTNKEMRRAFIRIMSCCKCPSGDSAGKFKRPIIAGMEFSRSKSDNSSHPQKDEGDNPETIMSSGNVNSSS
# T27 sequence (Q9UBS5 20-961): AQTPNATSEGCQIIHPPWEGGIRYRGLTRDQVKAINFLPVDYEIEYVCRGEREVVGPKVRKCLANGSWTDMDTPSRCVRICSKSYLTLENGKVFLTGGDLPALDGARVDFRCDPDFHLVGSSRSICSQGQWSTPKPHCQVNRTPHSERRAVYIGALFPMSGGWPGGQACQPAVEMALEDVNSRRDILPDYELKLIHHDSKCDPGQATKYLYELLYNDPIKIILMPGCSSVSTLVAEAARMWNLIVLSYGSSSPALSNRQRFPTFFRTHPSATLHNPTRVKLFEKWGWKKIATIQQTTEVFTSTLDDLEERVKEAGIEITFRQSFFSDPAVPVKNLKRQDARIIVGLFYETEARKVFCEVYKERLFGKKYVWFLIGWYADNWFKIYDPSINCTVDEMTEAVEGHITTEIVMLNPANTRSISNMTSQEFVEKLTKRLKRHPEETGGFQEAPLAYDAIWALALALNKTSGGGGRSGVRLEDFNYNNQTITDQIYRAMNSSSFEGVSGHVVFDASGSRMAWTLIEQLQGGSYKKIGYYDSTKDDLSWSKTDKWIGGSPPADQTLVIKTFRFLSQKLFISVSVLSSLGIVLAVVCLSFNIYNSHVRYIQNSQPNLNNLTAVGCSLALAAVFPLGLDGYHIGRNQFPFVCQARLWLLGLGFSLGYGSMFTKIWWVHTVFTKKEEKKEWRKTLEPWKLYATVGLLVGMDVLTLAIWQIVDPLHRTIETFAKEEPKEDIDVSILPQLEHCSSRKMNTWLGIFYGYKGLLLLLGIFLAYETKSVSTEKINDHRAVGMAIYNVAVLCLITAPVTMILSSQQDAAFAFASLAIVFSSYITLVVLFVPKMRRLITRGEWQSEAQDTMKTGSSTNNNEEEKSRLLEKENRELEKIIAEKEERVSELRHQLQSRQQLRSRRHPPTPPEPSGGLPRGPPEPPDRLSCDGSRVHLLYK
# T4 sequence (O15552 whole entry): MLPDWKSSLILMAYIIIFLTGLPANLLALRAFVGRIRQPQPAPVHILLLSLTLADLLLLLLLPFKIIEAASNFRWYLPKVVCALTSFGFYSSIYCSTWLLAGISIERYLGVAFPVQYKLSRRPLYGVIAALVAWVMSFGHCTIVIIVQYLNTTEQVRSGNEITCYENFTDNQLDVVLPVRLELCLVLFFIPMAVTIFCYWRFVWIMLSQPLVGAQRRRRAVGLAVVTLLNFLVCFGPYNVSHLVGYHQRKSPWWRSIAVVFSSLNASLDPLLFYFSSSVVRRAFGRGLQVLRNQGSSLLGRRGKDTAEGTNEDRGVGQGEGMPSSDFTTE
# T28 sequence (O43603 whole entry): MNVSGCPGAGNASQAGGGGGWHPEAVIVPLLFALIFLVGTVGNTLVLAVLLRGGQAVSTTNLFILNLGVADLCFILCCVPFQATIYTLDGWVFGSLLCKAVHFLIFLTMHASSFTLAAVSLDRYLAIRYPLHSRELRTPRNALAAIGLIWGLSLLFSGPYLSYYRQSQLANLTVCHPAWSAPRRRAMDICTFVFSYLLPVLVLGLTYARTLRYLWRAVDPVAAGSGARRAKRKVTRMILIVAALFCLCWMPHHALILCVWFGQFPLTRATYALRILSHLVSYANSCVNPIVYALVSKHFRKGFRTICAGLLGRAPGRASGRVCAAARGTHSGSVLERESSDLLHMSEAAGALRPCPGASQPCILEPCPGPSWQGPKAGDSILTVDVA
# T24 sequence (P46092 whole entry): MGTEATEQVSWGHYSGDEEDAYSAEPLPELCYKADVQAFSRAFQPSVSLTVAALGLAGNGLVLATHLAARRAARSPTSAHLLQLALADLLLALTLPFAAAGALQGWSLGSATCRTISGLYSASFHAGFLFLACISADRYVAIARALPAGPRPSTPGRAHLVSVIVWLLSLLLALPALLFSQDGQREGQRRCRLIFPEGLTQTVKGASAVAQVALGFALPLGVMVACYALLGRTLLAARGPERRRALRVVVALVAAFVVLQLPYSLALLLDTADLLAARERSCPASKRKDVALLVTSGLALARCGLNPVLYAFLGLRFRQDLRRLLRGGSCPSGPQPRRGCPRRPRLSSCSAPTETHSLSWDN
# T20 sequence (P49146 whole entry): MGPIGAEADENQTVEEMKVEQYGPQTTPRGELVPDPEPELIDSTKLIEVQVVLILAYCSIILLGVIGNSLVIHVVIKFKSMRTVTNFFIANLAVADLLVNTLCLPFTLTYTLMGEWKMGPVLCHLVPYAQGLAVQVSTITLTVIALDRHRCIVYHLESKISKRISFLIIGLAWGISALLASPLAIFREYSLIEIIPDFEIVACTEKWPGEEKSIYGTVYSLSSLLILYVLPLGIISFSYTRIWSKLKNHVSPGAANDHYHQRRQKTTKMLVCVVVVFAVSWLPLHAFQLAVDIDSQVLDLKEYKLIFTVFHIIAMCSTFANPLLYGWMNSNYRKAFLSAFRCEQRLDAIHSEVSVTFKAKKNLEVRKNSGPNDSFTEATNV
smiles,measurement,setting,value
CC(C)Cc1ncc(CCCCNC(=N)N)[nH]c1=O [3-Homo],GPCR activation (heatmap value),NPY5R,-0.26
same,GPCR activation (heatmap value),OXER1,0.0005851
same,GPCR activation (heatmap value),RXFP3,0.07695
same,GPCR activation (heatmap value),FFA2,-0.3322
same,GPCR activation (heatmap value),HTR5,0.4039
same,GPCR activation (heatmap value),GRM7,-0.0693
same,GPCR activation (heatmap value),ADRB3,-1.912
same,GPCR activation (heatmap value),MRGPRD,0.2698
same,GPCR activation (heatmap value),CCR3,-0.05608
same,GPCR activation (heatmap value),P2RY2,-0.0487
same,GPCR activation (heatmap value),GRM5,-0.9141
same,GPCR activation (heatmap value),PTAFR,-0.1375
same,GPCR activation (heatmap value),NTSR2,-0.1953
same,GPCR activation (heatmap value),AVPR1A,0.8531
same,GPCR activation (heatmap value),GPR4,0.3486
same,GPCR activation (heatmap value),S1PR1,-0.03733
same,GPCR activation (heatmap value),DRD1,0.1434
same,GPCR activation (heatmap value),SSTR2,0.327
same,GPCR activation (heatmap value),CXCR3,0.846
same,GPCR activation (heatmap value),NPY2R,0.3401
same,GPCR activation (heatmap value),GPRC5B,0.238
same,GPCR activation (heatmap value),GPR52,0.2473
same,GPCR activation (heatmap value),LTB4R,0.1103
same,GPCR activation (heatmap value),CCR10,0.7826
same,GPCR activation (heatmap value),GPR22,-1.099
same,GPCR activation (heatmap value),GPR26,-1.573
same,GPCR activation (heatmap value),GABBR1,-1.048
same,GPCR activation (heatmap value),GAL2,0.5878
same,GPCR activation (heatmap value),OPRD1,-0.6579
same,GPCR activation (heatmap value),GRPR,-0.6902
same,GPCR activation (heatmap value),TAAR6,0.5054
same,GPCR activation (heatmap value),PTH1R,-0.1159
same,GPCR activation (heatmap value),GPR183,-0.6232
same,GPCR activation (heatmap value),SSTR5,-0.02493
same,GPCR activation (heatmap value),GPR142,-0.286
same,GPCR activation (heatmap value),GPR114,0.07141
CC(C)Cc1ncc(CCCNC(=N)N)[nH]c1=O [compound 3],GPCR activation (heatmap value),NPY5R,0.08813
same,GPCR activation (heatmap value),OXER1,-0.9579
same,GPCR activation (heatmap value),RXFP3,-0.5079
same,GPCR activation (heatmap value),FFA2,-0.009625
same,GPCR activation (heatmap value),HTR5,-0.08015
same,GPCR activation (heatmap value),GRM7,0.04754
same,GPCR activation (heatmap value),ADRB3,0.7966
same,GPCR activation (heatmap value),MRGPRD,-0.4298
same,GPCR activation (heatmap value),CCR3,-0.6954
same,GPCR activation (heatmap value),P2RY2,0.0313
same,GPCR activation (heatmap value),GRM5,0.02679
same,GPCR activation (heatmap value),PTAFR,-0.05027
same,GPCR activation (heatmap value),NTSR2,-2.304
same,GPCR activation (heatmap value),AVPR1A,0.9724
same,GPCR activation (heatmap value),GPR4,0.5113
same,GPCR activation (heatmap value),S1PR1,-0.122
same,GPCR activation (heatmap value),DRD1,0.8634
same,GPCR activation (heatmap value),SSTR2,-0.806
same,GPCR activation (heatmap value),CXCR3,0.3957
same,GPCR activation (heatmap value),NPY2R,0.1932
same,GPCR activation (heatmap value),GPRC5B,0.6932
same,GPCR activation (heatmap value),GPR52,0.9036
same,GPCR activation (heatmap value),LTB4R,-0.07274
same,GPCR activation (heatmap value),CCR10,0.9946
same,GPCR activation (heatmap value),GPR22,-1.5748
same,GPCR activation (heatmap value),GPR26,2.339
same,GPCR activation (heatmap value),GABBR1,0.7353
same,GPCR activation (heatmap value),GAL2,0.1995
same,GPCR activation (heatmap value),OPRD1,1.451
same,GPCR activation (heatmap value),GRPR,0.1678
same,GPCR activation (heatmap value),TAAR6,0.2505
same,GPCR activation (heatmap value),PTH1R,0.5796
same,GPCR activation (heatmap value),GPR183,-0.9955
same,GPCR activation (heatmap value),SSTR5,-1.082
same,GPCR activation (heatmap value),GPR142,-0.6317
same,GPCR activation (heatmap value),GPR114,0.003235
